Measured values as given in article PMC9827630, “Intra-colony venom diversity contributes to maintaining eusociality in a cooperatively breeding ant” (BMC Biology, 2023).
Where a SMILES comes first, the peptide text is derived from it. Bridges are numbered along the chain shown (N, C = ends). Where no end group is shown, it is not given here.

Experiments:
[1] = test system: HEK293T cells; assay: Cell viability assay, resazurin; format: cell-based; settings: 100 μM peptide
Method: (§1) In addition to the cytotoxicity assays performed by CO-ADD, we screened the synthetic peptides for toxicity in cell viability assays using HAP1, MM96L, and HEK293T cells. peptides were reconstituted in 100% DMSO then diluted in cell media (HAP1: IMDM (Sigma Aldrich) with 10% FBS and 1% Penicillin/Streptomycin (P/S); MM96L: RPMI (Gibco) with 10% FBS, 1% P/S and 1% GlutaMAX (Gibco); HEK293T: DMEM high glucose (Gibco), with 10% FBS and 1% P/S. Trypsinized cells ([…]) were seeded in each well of a 96-well plate. 0.01 to 1000 μM peptide was added to each well after 24 h, and the cells incubated for an additional 74 h. After incubation, the medium was aspirated from each well and 150 μL of fresh medium containing a 0.002% solution of resazurin (Sigma-Aldrich) was added to the wells and incubated for 4 h at 37 °C. The absorbance was measured at 570 nm using a microplate spectrophotometer (FLUOstar Omega, BMG Labtech, Germany). Percentage cell viability at concentrations of 10 and 100 μM peptide were compared with negative control by one-way ANOVA Dunnett’s multiple comparisons test (GraphPad Prism8).

[2] = test system: MM96L cells (melanoma cell line); assay: Cell viability assay, resazurin; format: cell-based; settings: 100 μM peptide
Method: as §1

[3] = test system: Cryptococcus neoformans var. grubii H99; ATCC 208821; assay: Antifungal growth inhibition (CO-ADD); format: cell-based; settings: for Max response ± SEM: percentage growth inhibition, difference in absorbance 600 and 570 nm after resazurin, 35°C 2 h, mean ± SEM; for MIC: sigmoidal dose-response fit of growth inhibition, resazurin read-out
Method: (§2) Antimicrobial and cytotoxicity assays were performed by CO-ADD (The Community for Antimicrobial Drug Discovery, Institute for Molecular Bioscience, The University of Queensland). […] Percentage growth inhibition was calculated using negative controls (media only) and positive controls (no peptide). For the hemolysis assays, human whole blood was washed three times with 3 volumes of 0.9% NaCl and then resuspended in 0.9% NaCl to a concentration of 0.5 × 10^8 cells/mL. Cells were incubated for 1 h at 37°C with or without the peptide. After incubation, plates were centrifuged at 1000 g for 10 min to pellet cells and debris and hemolysis determined by measuring the supernatant absorbance at 405 nm.

[4] = test system: Candida albicans ATCC 90028; assay: Antifungal growth inhibition (CO-ADD); format: cell-based; settings: absorbance at 530 nm; for Max response ± SEM: percentage growth inhibition, mean ± SEM; for MIC: sigmoidal dose-response fit of growth inhibition
Method: as §2

[5] = test system: Escherichia coli ATCC 25922; assay: Antimicrobial growth inhibition (CO-ADD); format: cell-based; settings: absorbance at 600 nm; for Max response ± SEM: percentage growth inhibition, mean ± SEM; for MIC: sigmoidal dose-response fit of growth inhibition
Method: as §2

[6] = test system: Pseudomonas aeruginosa ATCC 27853; assay: Antimicrobial growth inhibition (CO-ADD); format: cell-based; settings: absorbance at 600 nm; for Max response ± SEM: percentage growth inhibition, mean ± SEM; for MIC: sigmoidal dose-response fit of growth inhibition
Method: as §2

[7] = test system: Klebsiella pneumoniae ATCC 700603; assay: Antimicrobial growth inhibition (CO-ADD); format: cell-based; settings: absorbance at 600 nm; for Max response ± SEM: percentage growth inhibition, mean ± SEM; for MIC: sigmoidal dose-response fit of growth inhibition
Method: as §2

[8] = test system: Staphylococcus aureus ATCC 43300; assay: Antimicrobial growth inhibition (CO-ADD); format: cell-based; settings: for Max response ± SEM: percentage growth inhibition, mean ± SEM; for Max response ± SEM / MIC: absorbance at 600 nm; for MIC: sigmoidal dose-response fit of growth inhibition
Method: as §2

[9] = test system: Acinetobacter baumannii ATCC 19606; assay: Antimicrobial growth inhibition (CO-ADD); format: cell-based; settings: for Max response ± SEM: percentage growth inhibition, mean ± SEM; for Max response ± SEM / MIC: absorbance at 600 nm; for MIC: sigmoidal dose-response fit of growth inhibition
Method: as §2

[10] = test system: panel of microbes; assay: Antimicrobial screening, summary over the panel of microbes; format: cell-based; settings: all strains of the panel (for Rm54a and Rm55a: strains other than S. aureus)
Method: as §2

[11] = test system: HAP1 cells; assay: Cell viability assay, resazurin; format: cell-based
Method: as §1

[12] = test system: Human red blood cells; assay: Hemolysis assay (CO-ADD); format: cell-based; settings: 1 h at 37°C, absorbance at 405 nm; sigmoidal dose-response fit
Method: as §2

[13] = test system: Female fruit flies (D. melanogaster strain Canton-S); assay: Fruit fly injection assay (lethality, paralysis, climbing); format: in vivo, Drosophila melanogaster
Method: Female fruit flies (D. melanogaster strain Canton-S) were injected four to six days post-emergence. Female flies were used because their larger size makes injection easier. Groups of eight female flies were assayed in triplicate for each dose tested. Injection needles were formed from glass capillary tubes (#3-000-203-G/X, Drummond, Birmingham, AL, USA) using a micropipette puller (Sutter Instrument Co. Model P-97), with the fine tip manually trimmed afterwards using scissors. Needles then were filled with mineral oil, connected to a Nanoliter 2000 microinjector ([…], Bensenville, IL USA) equipped with a foot pedal, and ~1 μL of peptide solution or water aspirated. Each group of flies were immobilized by cooling for approximately 2 min on ice, and then decanted on the top of the ‘injection stage’, a petri dish filled with ice. Under a dissecting microscope, each fly was carefully impaled on the lateral thorax behind the wing, and 50.6 nL of venom peptide or water was injected. After injection, each group of flies were returned to their 5 mL plastic tube at room temperature and their behavior observed.

[14] = test system: F11; assay: Ion permeability F11; format: cell-based, mouse; settings: ions listed as permeant; - = none
[15] = test system: HEK; assay: Ion permeability HEK; format: cell-based, Human; settings: ions listed as permeant; - = none
[16] = test system: F11 (mouse neuroblastoma × rat dorsal root ganglion (DRG) neuron hybrid) cells; assay: Calcium imaging of F11 cells (FLIPR); format: cell-based; settings: increase in [Ca2+]i, max-min fluorescence over 300 s; read-out: EC50 (F11 cells, Table S2)
Method: F11 (mouse neuroblastoma × rat dorsal root ganglion (DRG) neuron hybrid) cells were cultured as previously described. Cells were maintained on Ham’s F12 media supplemented with 10 % fetal bovine serum, 100 μM hypoxanthine, 0.4 μM aminopterin, and 16 μM thymidine (Hybri-MaxTM, Sigma Aldrich). 384-well imaging plates (Corning, Lowell, MA, USA) were seeded 48 h prior to imaging resulting in 90 – 95% confluence at imaging. Cells were incubated for 30 min with Calcium 4 assay component A, as per the manufacturer’s instructions (Molecular Devices, Sunnyvale, CA) in physiological salt solution (PSS; composition in mM: 140 NaCl, 11.5 D-glucose, 5.9 KCl, 1.4 MgCl2, 1.2 NaH2PO4, 5 NaHCO3, 1.8 CaCl2, 10 HEPES) at 37°C. […] Signals were read every second for 10 s before, and 300 s after, the addition of peptides in PSS supplemented with 0.1% bovine serum albumin. All data represent mean ± SEM of a representative assay in triplicate. Fluorescence changes on peptide addition were compared to addition of negative control solution (0.1% BSA in PSS). The resulting maximum-minimum fluorescence in the 300 s period after peptide addition was recorded as the response.

[17] = test system: Human embryonic kidney cells ATCC CRL-1573; assay: Cytotoxicity assay (CO-ADD), resazurin; format: cell-based; settings: resazurin fluorescence
Method: as §2

[18] = test system: House crickets (Acheta domesticus); assay: Insect incapacitation assay, house crickets; format: in vivo
Method: House crickets (A. domesticus; Pisces Live Food, QLD, Australia) (average mass 50 mg), were injected intra-abdominally with 40 nmol/g of each synthetic peptide (in 2 μL water). […] Lethality was assessed at 24 h. […] To calculate dose-response curves, a four-parameter Hill equation with variable Hill slope was fitted to the data (GraphPad Prism 8.02). All data are expressed as the mean ± standard error of the mean (SEM) and are representative of at least three independent data points. The percentage of crickets incapacitated by a dose of 40 nmol/g, was compared with negative control (water injection) by one-way ANOVA Dunnett’s multiple comparisons test (GraphPad Prism8).

Row | Compound | Max response ± SEM [3] | MIC [3] | Max response ± SEM [4] | MIC [4] | Max response ± SEM [5] | MIC [5] | Max response ± SEM [6] | MIC [6] | Max response ± SEM [7] | MIC [7] | Max response ± SEM [8] | MIC [8] | Max response ± SEM [9] | MIC [9] | Growth inhibition over the microbial strains examined [10] | ion permeability F11 [14] | ion permeability HEK [15] | EC50 [16] | further results
1 | CC[C@H](C)[C@H](NC(=O)[C@H](CCC(=O)O)NC(=O)[C@H](CCC(N)=O)NC(=O)[C@H](CCSC)NC(=O)[C@H](CC(N)=O)NC(=O)[C@@H](N)CO)C(=O)N[C@@H](CCSC)C(=O)N[C@@H](CCCCN)C(=O)N[C@@H](CCCCN)C(=O)N[C@@H](CC(C)C)C(=O)N[C@H]1CSSC[C@@H](C(=O)N[C@@H](CCCCN)C(=O)N[C@@H](CCSC)C(=O)N[C@@H](CC(C)C)C(=O)NCC(=O)N[C@@H](CC(C)C)C(=O)O)NC(=O)[C@H](CCSC)NC(=O)[C@H](Cc2c[nH]c3ccccc23)NC(=O)[C@H](C)NC(=O)[C@@H]2CCCN2C(=O)[C@H](CCSC)NC(=O)[C@H](CCCCN)NC(=O)[C@H](CCCCN)NC(=O)[C@H](CC(=O)O)NC(=O)[C@H]([C@@H](C)O)NC1=O [Rm9a] (H-SNMQEIMKKLCTDKKMPAWMCKMLGL-OH; disulfide 11-21; N-terminus assumed) | -86 ± 5 | >11 µM | 1 ± 2 | >11 µM | 3 ± 2 | >11 µM | 5 ± 3 | >11 µM | 5 ± 2 | >11 µM | 3 ± 5 | >11 µM | 9 ± 0 | >11 µM | no inhibitory activity |  |  |  | Cytotoxicity against HEK293T cells [1]: cytotoxic to both HEK293T and MM96L cells; Cytotoxicity against MM96L cells [2]: cytotoxic to both HEK293T and MM96L cells
2 | FIGGLIKFIAKFVPKILPFFQKKN-OH [Rm34a] | 101 ± 0 | 6.1 µM | 100 ± 2 | 0.72 µM | 98 ± 0 | 8.6 µM | 85 ± 6 | 11 µM | 70 ± 28 | 11 µM | 102 ± 2 | ≤0.09 µM | 100 ± 0 | ≤0.09 µM | complete or near-complete growth inhibition of all microbial strains | Ca2+,Na+,Th+ | Ca2+,Na+,Th+ | 4.8 µM | Cytotoxicity to HAP cells [11]: cytotoxic to HAP cells; HAP cell viability ([11]; 10 μM peptide, n = 3 per group): significantly reduced HAP cell viability; HC50 (concentration at 50% hemolytic activity) [12]: 3.3 µM; Motor behavior (climbing assay) ([13]; 5 nmol/g injected, climbing assay 5 min after injection, significant versus control): disrupted motor behavior; Max response ± SEM ([17]; percentage growth inhibition, 37°C 5% CO2, mean ± SEM): 57 ± 5; CC50 (concentration at 50% cytotoxicity) ([17]; sigmoidal dose-response fit): 1.7 µM; EC50 ([8]; summary of Table S2): ≤ 0.09 µM; EC50 ([9]; summary of Table S2): ≤ 0.09 µM
3 | VAPIVAMAGLGLFAAAVAGLDWLSKKV-NH2 [Rm1a] | 36 ± 7 | >12 µM | 67 ± 4 | >12 µM | 9 ± 3 | >12 µM | -2 ± 9 | >12 µM | 0 ± 2 | >12 µM | -19 ± 7 | >12 µM | 3 ± 2 | >12 µM |  | Ca2+,Na+,Th+ | Ca2+,Na+,Th+ | 5.7 µM | Flies dead ([13]; 50 pmol/g injected, mean ± SD): 25.0 ± 12.5%; Flies paralyzed ([13]; 50 pmol/g injected, mean ± SD): 95.8 ± 7.2%; Instant death of flies ([13]; 5 nmol/g injected, groups of eight female flies in triplicate, mean ± SD): 100 ± 0%; LD50 5 min (dose required to kill 50% of flies 5 min after injection) ([13]; D. melanogaster, 5 min after injection): 0.17 nmol/g; PD50 5 min (dose required to paralyze 50% of flies within 5 min) ([13]; D. melanogaster, within 5 min): 23 pmol/g; Lethality in crickets at lowest dose tested ([18]; 40 pmol/g, intra-abdominal injection, lethality assessed at 24 h): ultimately lethal; Incapacitation of crickets ([18]; 40 nmol/g, intra-abdominal injection, observed 30 min): able to incapacitate crickets; Onset of incapacitation in crickets ([18]; 40 and 4 nmol/g, delayed at lower doses): immediate; PD50 30 min (dose required to paralyze 50% of crickets 30 min after injection) ([18]; intra-abdominal injection, n = 3 per group): 0.3 nmol/g
